We go through three molecules from US8608842B2, “Infrared absorbing composition, infrared absorbing ink, recorded article, image recording method, and image detecting method” (FUJIFILM Corporation, priority 2010, dated 2013).

Format in all cases: physicochemical
Data set [1] can be described thus: Ultraviolet curable ink of Example 4: reflected light of mark for copy protection, before and after xenon irradiation. As to conditions: xenon light of 70,000 lux, 72 hours; variation compared to the value before irradiation. Here is the method:
By mixing the components of the composition shown below, an ultraviolet curable ink having an infrared absorbing property was prepared.
By using the ultraviolet curable ink thus obtained, a mark for copy protection was printed on the same base paper as that used in Example 1 by Gravure printing. On top of the printed mark for copy protection, each of the three kinds of a process ink (FDOL Yellow, FDOL Magenta, and FDOL Cyan, trade names, manufactured by TOYO INK MFG. CO., LTD.) was applied as a layer by Gravure printing, or a mixture ink in which the three kinds of a process ink are mixed was applied as a layer by Gravure printing to hide the mark for copy protection, thus obtaining a printed article.
The mark for copy protection that is hidden by the process ink was irradiated with infrared light using a linear sensor (trade name: TCD1500C, manufactured by Toshiba) in which the infrared cut-off filter of linear sensor was replaced with an infrared transmitting filter (trade name: IR83, manufactured by Hoya) as a detection device, and the reflected light was detected simultaneously.
The reflection light intensity in the area of the mark for copy protection at the time of detecting the mark was divided by the reflection light intensity of the area outside the mark for copy protection. The resulting value of the comparative infrared absorbing agent A was set to 1, and a ratio of the resulting value with respect to the resulting value of the comparative infrared absorbing agent A was calculated for each compound.
In addition, the obtained printed article was irradiated continuously with xenon light of 70,000 lux for 72 hours by using a Xenon lamp. After the irradiation, similar to above, the reflection light intensity of the area of the mark for copy protection was divided by the reflection light intensity of the area outside the mark for copy protection, and the variation ratio [%] compared to the value before the irradiation was calculated to use it as an index for evaluation of light resistance.

Data set [2] can be described thus: Solubility of IR coloring material in toluene at 25° C. As to conditions: toluene, 25° C. As for the experimental part: Specifics are as follows.
First, a tetrahydrofuran (THF) solution prepared by adding the IR coloring material to TI-IF is measured by a spectrophotometer and a calibration curve is constructed. Next, a liquid is prepared by adding the IR coloring material to toluene to the level that there is a part of the coloring material left undissolved. The resulting liquid is subjected to ultrasonication for 10 minutes while being maintained at 25° C., and allowed to stand overnight at 25° C. The THF solution obtained after the standing is filtered using a 0.2 μm filter. The filtrate is diluted so that it falls within the linear range of the calibration curve, the absorbance is measured, and quantification is made using the calibration curve.
The solubility shown in Table 1 was measured according to the method described below. Specifics are as follows.
First, the THF solution prepared by adding the IR coloring material to tetrahydrofuran (THF) was measured by a spectrophotometer, and the calibration curve was established. Next, a liquid was prepared by adding the IR coloring material to toluene to the level that there is a part of coloring material left undissolved. The resulting liquid was subjected to ultrasonication for 10 minutes while being kept at 25° C., and allowed to stand overnight at 25° C. The THF solution obtained after the standing was filtered using a 0.2 μm filter. The filtrate was diluted so that it falls within the linear range of the calibration curve, and the absorbance was measured. Based on the measured value, the solubility was quantified using the calibration curve.

Data set [3] in a line: Bar code pattern reading (PCS) of printed article before and after xenon light irradiation (light resistance). As to conditions: xenon light of 70,000 lux, 200 hours. As for the experimental part: By mixing the components of the composition shown below, the infrared absorbing printing ink (1) was prepared.
By using each of the infrared absorbing printing ink obtained above, a bar code pattern was formed on a regular paper (trade name: MP-120, manufactured by PLUS Corporation), i.e., a base paper, by Gravure printing.
Subsequently, on the formed bar code pattern, another bar code pattern was additionally formed by using the infrared absorbing ink (2) having the composition shown below.
Next, on top of the bar code patterns formed by disposing two layers, three kinds of process inks having infrared transmittance (FDOL Yellow, FDOL Magenta, and FDOL Cyan, manufactured by TOYO INK MFG. CO., LTD. (trade names, manufactured by TOYO INK MFG. CO., LTD.) were further applied by Gravure printing to form a colored layer made of three visible colors (cyan, magenta, and yellow). As a result, a printed article having a bar code pattern disposed inside the matter was produced.
Two kinds of semiconductor laser beam having wavelengths of 830 nm and 905 nm respectively were irradiated onto the thus obtained printed article, and the detection was made by using a filter which cuts off the emission light having wavelength of 950 nm or less. As a result, it was possible to detect the pattern formed by the infrared absorbing ink.
Subsequently, xenon light of 70,000 lux was irradiated continuously for 200 hours onto the printed article by using a xenon lamp. After that, the reading state of the bar code pattern after the irradiation was evaluated. For the evaluation, PCS (print•contrast•signal) of 0.6 or more was evaluated as “good,” and PCS (print•contrast•signal) of less than 0.6 was evaluated as “bad.” The evaluation results are shown in Table 2 below.
The printed article was prepared in the same manner as Example 1 except that the solvent (a mixture solvent of toluene and methyl isobutyl ketone) in the composition of the infrared absorbing ink (1) and (2) is replaced with n-octane (SP value: 7.6), butyl acetate (SP value: 8.5), or isopropyl alcohol (IPA; SP values: 11.5), and evaluated.
The comparative printed article was prepared in the same manner as Example 1 except that the solvent (a mixture solvent of toluene and methyl isobutyl ketone) in the composition of the infrared absorbing ink (1) and (2) is replaced with n-pentane (SP value: 7.0; Example 2) or ethanol (SP value: 12.7; Example 3), and evaluated.

The mark [4] stands for this setting: ink solvent toluene/methyl isobutyl ketone = 70/30.

As for `Nc1ccccc1Sc1c2c(c(Sc3ccccc3N)c3c1C1=Nc4c5c(Sc6ccccc6N)c6c(c(Sc7ccccc7N)c5c5[n]4[V](=[O])[n]4c(c7c(Sc8ccccc8N)c8c(c(Sc9ccccc9N)c7c4=NC4=NC(=N5)c5c(Sc7ccccc7N)c7c(c(Sc9ccccc9N)c54)NC4C=CC=CC4S7)SC4C=CC=CC4N8)=NC3=N1)NC1C=CC=CC1S6)SC1C=CC=CC1N2` (centres unmarked) [Compound 71], the “Variation amount after irradiation [%]” value in data set [1] stood at 3%. In data set [2], the “Solubility [mg/ml] Solvent: toluene” value was determined as 16 mg/mL. Also, the Reading after irradiation entry in data set [3] (Example 2, ink solvent n-pentane (SP value: 7.0)) was “Bad (PCS (print•contrast•signal) of less than 0.6 was evaluated as “bad.”)”; in data set [3] (Example 3, ink solvent ethanol (SP value: 12.7)) it was “Bad (PCS (print•contrast•signal) of less than 0.6 was evaluated as “bad.”)”; in data set [3] (ink solvent IPA (SP value: 11.5)), “Good (PCS (print•contrast•signal) of 0.6 or more was evaluated as “good,”)”; in data set [3] (ink solvent butyl acetate (SP value: 8.5)), “Good (PCS (print•contrast•signal) of 0.6 or more was evaluated as “good,”)”; in data set [3] (ink solvent n-octane (SP value: 7.6)), “Good (PCS (print•contrast•signal) of 0.6 or more was evaluated as “good,”)”; in data set [3] (setting [4]) it was “Good (PCS (print•contrast•signal) of 0.6 or more was evaluated as “good,”)”.
`CCCCCCCCN1/C(=C/C=C/C=C/C=C/C2=[N+](CCCCCCCC)c3ccc4ccccc4c3C2(C)C)C(C)(C)c2c1ccc1ccccc21.Cc1ccc(S(=O)(=O)[O-])cc1` [reference compound]: the “Variation amount after irradiation [%]” value in data set [1] is reported as 21%. Moreover, the “Solubility [mg/ml] Solvent: toluene” value in data set [2] came to 43 mg/mL. Further, in data set [3] (setting [4]), the Reading after irradiation result is “Bad (PCS (print•contrast•signal) of less than 0.6 was evaluated as “bad.”)”.
The corresponding values for “N,N,N′,N′-tetrakis(p-di-n-butylaminophenyl)-p-phenylene diaminium perchlorate salt [reference compound]” are 16%, 32 mg/mL and “Bad (PCS (print•contrast•signal) of less than 0.6 was evaluated as “bad.”)”.
